Patent US10435361B2, “Kinase inhibitors” (Topivert Pharma Limited, priority 2013, dated 2019)

What was measured:
Assay type in all cases: cell-based
[1] = system: HT29 cells; experiment: IL-1β-induced IL-8 release in HT29 cells; conditions: Homo sapiens, HT-29, assay (d), read-out: IC50 Values for Inhibition of Cytokine Release HT29 cells IL-8
Protocol: HT29 cells, a human colon adenocarcinoma cell line, are plated in a 96 well plate (24 hr) and pre-treated with compounds at the desired concentration for 2 hours before addition of 5 ng/mL of IL-1β (Abcam) for 24 hours. Supernatants are harvested for IL-8 quantification by Sandwich ELISA (Duo-set, R&D System). The IC50 is determined from the dose response curve.

[2] = system: PBMCs; experiment: LPS-induced TNFα/IL-8 release in PBMC cells; conditions: Homo sapiens, assay (b), read-out: IC50 Values for Inhibition of Cytokine Release PBMCs IL-8
Procedure, shortened: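 Healthy-donor PBMCs isolated by density gradient were pretreated with compound for 2 h, then stimulated with 1 ng/mL LPS (E. coli 0111:B4) for 24 h at 37° C., 5% CO2. IL-8 and TNFα in supernatants measured by sandwich ELISA.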

[3] = system: PBMCs; experiment: IL-2 and IFN gamma release in CD3/CD28 stimulated PBMC cells; conditions: Homo sapiens, assay (c)
Protocol: PBMCs from healthy subjects are separated from whole blood using a density gradient (Lymphoprep, Axis-Shield Healthcare). Cells are added to a 96 well plate pre-coated with a mixture of CD3/CD28 monoclonal antibodies (0.3 μg/mL eBioscience and 3 μg/mL BD Pharmingen respectively). Compound at the desired concentration is then added to the wells and the plate left for 3 days under normal tissue culture conditions. […] The IC50 is determined from the dose response curve.

[4] = system: PBMCs; experiment: Cell mitosis assay in PBMCs; conditions: Homo sapiens, PBMC, 5 μg/mL
Protocol: Peripheral blood mononucleocytes (PBMCs) from healthy subjects are separated from whole blood (Quintiles, London, UK) using a density gradient (Histopaque®-1077, Sigma-Aldrich, Poole, UK). The PBMCs (3 million cells per sample) are subsequently treated with 2% PHA (phytohaemagglutinin, Sigma-Aldrich, Poole, UK) for 48 hr, followed by a 20 hr exposure to varying concentrations of test compounds. At 2 hr before collection, PBMCs are treated with demecolcine (0.1 μg/mL; Invitrogen, Paisley, UK) to arrest cells in metaphase. To observe mitotic cells, PBMCs are permeabilised and fixed by adding Intraprep (50 μL; Beckman Coulter, France), and stained with anti-phospho-histone 3 (0.26 ng/L; #9701; Cell Signalling, Danvers, Mass.) and propidium iodide (1 mg/mL; Sigma-Aldrich, Poole, UK) as previously described (Muehlbauer P. A. and Schuler M. J., Mutation Research, 2003, 537:117-130). Fluorescence is observed using an ATTUNE flow cytometer (Invitrogen, Paisley, UK), gating for lymphocytes.

[5] = read-out: IC50 Values for Inhibition of Cytokine Release PBMCs IFNγ
[6] = read-out: IC50 Values for Inhibition of Cytokine Release PBMCs IL-2

COCCOCCOCCOc1cc(Nc2nccc(Oc3ccc(NC(=O)Nc4cc(C(C)(C)C)cc(NS(C)(=O)=O)c4-c4ccccc4)c4ccccc34)n2)cc(OC)c1 [83(a), N-(4-(tert-butyl)-6-(3-(4-((2-((3-methoxy-5-(2-(2-(2-methoxyethoxy)ethoxy)ethoxy)phenyl)-amino)pyrimidin-4-yl)oxy)naphthalen-1-yl)ureido)-[1,1′-biphenyl]-2-yl)methane-sulfonamide] gave an IC50 [1] of 62.5 nM and an IC50 [2] of 39 nM.

In the case of COCCOCCOCCOc1cc(Nc2nccc(Oc3ccc(NC(=O)Nc4cc(N5CCOCC5)ccc4OC)c4ccccc34)n2)cc(OC)c1 [Example 12, 1-(4-((2-((3-Methoxy-5-(2-(2-(2-methoxyethoxy)ethoxy)ethoxy)phenyl)amino)-pyrimidin-4-yl)oxy)naphthalen-1-yl)-3-(2-methoxy-5-morpholinophenyl)urea], the IC50 [1] is reported as 1320 nM and the IC50 [2] is reported as 107 nM.

With CNC(=O)c1cc(NC(=O)Nc2ccc(Oc3ccnc(Nc4cc(OC)cc(OCCOCCOCCOC)c4)n3)c3ccccc23)cc(C(C)(C)C)c1 [Example 23, 3-(tert-Butyl)-5-(3-(4-((2-((3-methoxy-5-(2-(2-(2-methoxyethoxy)ethoxy)ethoxy)phenyl)-amino)pyrimidin-4-yl)oxy)naphthalen-1-yl)ureido)-N-methylbenzamide] the IC50 [3, 5] was 9.1 nM, the IC50 [3, 6] was 17.1 nM and the inhibition at 5 µg/mL [4] was 25.4%. The IC50 [1] was 4.7 nM and the IC50 [2] was 2.6 nM.

COCCOCCOCCOc1cc(Nc2nccc(Oc3ccc(NC(=O)Nc4cc(NS(C)(=O)=O)cc(C(C)(C)C)c4)c4ccccc34)n2)cc(OC)c1 [Example 24, N-(3-(tert-Butyl)-5-(3-(4-((2-((3-methoxy-5-(2-(2-(2-methoxyethoxy)ethoxy)ethoxy)-phenyl)amino)pyrimidin-4-yl)oxy)naphthalen-1-yl)ureido)phenyl)methanesulfonamide] was tested, and the IC50 [3, 5] was 10.7 nM, the IC50 [3, 6] was 24.9 nM and the inhibition at 5 µg/mL [4] was 22.5%. For the same compound, the IC50 [2] was 1.9 nM.

COCCOCCOCCOc1cc(Nc2nccc(Oc3ccc(NC(=O)Nc4cc(C(C)(C)C)cc(C(=O)NCCO)c4OC)c4ccccc34)n2)cc(OC)c1 [Example 35, 5-(tert-Butyl)-N-(2-hydroxyethyl)-2-methoxy-3-(3-(4-((2-((3-methoxy-5-(2-(2-(2-methoxy-ethoxy)ethoxy)ethoxy)phenyl)amino)pyrimidin-4-yl)oxy)naphthalen-1-yl)ureido)-benzamide] showed an IC50 [3, 5] of 3.5 nM, an IC50 [3, 6] of 51 nM and an inhibition at 5 µg/mL [4] of 41.1%. For the same compound, the IC50 [2] was 1.4 nM.

COCCOCCOCCOc1cc(Nc2nccc(Oc3ccc(NC(=O)Nc4cc(C(C)(C)C)cc(C(=O)NCCN(C)C)c4OC)c4ccccc34)n2)cc(OC)c1 [Example 46, 5-(tert-Butyl)-N-(2-(dimethylamino)ethyl)-2-methoxy-3-(3-(4-((2-((3-methoxy-5-(2-(2-(2-methoxyethoxy)ethoxy)ethoxy)phenyl)amino)pyrimidin-4-yl)oxy)naphthalen-1-yl)ureido)-benzamide] gave an IC50 [3, 5] of 2 nM, an inhibition at 5 µg/mL [4] of 67.1% and an IC50 [2] of 0.9 nM.

With COc1cc(Nc2cc(Oc3ccc(NC(=O)Nc4cc(C(C)(C)C)cc(C(N)=O)c4OC)c4ccccc34)ccn2)cc(C(=O)NCCN2CCOCC2)c1 [Example 47, 3-((4-((4-(3-(5-(tert-Butyl)-3-carbamoyl-2-methoxyphenyl)ureido)naphthalen-1-yl)oxy)pyridin-2-yl)amino)-5-methoxy-N-(2-morpholinoethyl)benzamide] the IC50 [3, 5] was 7.3 nM, the IC50 [3, 6] was 102 nM and the inhibition at 5 µg/mL [4] was 59.1%. The IC50 [2] was 1.6 nM.

Compound C#Cc1cc(Nc2cc(Oc3ccc(NC(=O)Nc4cc(C(C)(C)C)cc(NS(C)(=O)=O)c4OC)c4ccccc34)ccn2)cc(C(=O)NCCOCCOCCOC)c1 [Example 54, 3-((4-((4-(3-(5-(tert-Butyl)-2-methoxy-3-(methylsulfonamido)phenyl)ureido)naphthalen-1-yl)oxy)pyridin-2-yl)amino)-5-ethynyl-N-(2-(2-(2-methoxyethoxy)ethoxy)ethyl)benzamide] has an IC50 [3, 5] of 33.3 nM, an IC50 [3, 6] of 354 nM and an inhibition at 5 µg/mL [4] of 37.8%. For the same compound, the IC50 [2] was 1.6 nM.

Compound COCCOCCOCCOc1cc(Nc2nccc(Oc3ccc(NC(=O)Nc4cc(C(C)(C)C)cc(-c5nnco5)c4OC)c4ccccc34)n2)cc(OC)c1 [Example 59, 1-(5-(tert-Butyl)-2-methoxy-3-(1,3,4-oxadiazol-2-yl)phenyl)-3-(4-((2-((3-methoxy-5-(2-(2-(2-methoxyethoxy)ethoxy)ethoxy)phenyl)amino)pyrimidin-4-yl)oxy)naphthalen-1-yl)urea] has an IC50 [3, 5] of 7.6 nM, an IC50 [3, 6] of 58.6 nM and an inhibition at 5 µg/mL [4] of 55.3%. The IC50 [2] was 3.3 nM.

C#Cc1cc(Nc2cc(Oc3ccc(NC(=O)Nc4cc(C(C)(C)C)cc(NS(C)(=O)=O)c4OC)c4ccccc34)ccn2)cc(C(=O)N[C@@H](C)COCCOCCOC)c1 [Example 67, (S)-3-((4-((4-(3-(5-(tert-Butyl)-2-methoxy-3-(methylsulfonamido)phenyl)ureido)-naphthalen-1-yl)oxy)pyridin-2-yl)amino)-5-ethynyl-N-(1-(2-(2-methoxyethoxy)ethoxy)-propan-2-yl)benzamide] showed an IC50 [3, 5] of 39.5 nM, an IC50 [3, 6] of 200 nM and an inhibition at 5 µg/mL [4] of 35.6%. The IC50 [2] was 2.7 nM.

COCCOCCOCCOc1cc(Nc2nccc(Oc3ccc(NC(=O)Nc4cc(C(C)(C)C)cc(-c5cnn[nH]5)c4OC)c4ccccc34)n2)cc(OC)c1 [Example 70, 1-(5-(tert-Butyl)-2-methoxy-3-(1H-1,2,3-triazol-5-yl)phenyl)-3-(4-((2-((3-methoxy-5-(2-(2-(2-methoxyethoxy)ethoxy)ethoxy)phenyl)amino)pyrimidin-4-yl)oxy)naphthalen-1-yl)urea] gave an IC50 [3, 5] of 7.4 nM, an IC50 [1] of 4.1 nM and an IC50 [2] of 4.9 nM.

COCCOCCOCCOc1cc(Nc2nccc(Oc3ccc(NC(=O)Nc4cc(C(C)(C)C)cc(NS(=O)(=O)C(F)(F)F)c4OC)c4ccccc34)n2)cc(OC)c1 [Example 71, N-(5-(tert-Butyl)-2-methoxy-3-(3-(4-((2-((3-methoxy-5-(2-(2-(2-methoxyethoxy)ethoxy)-ethoxy)phenyl)amino)pyrimidin-4-yl)oxy)naphthalen-1-yl)ureido)phenyl)-1,1,1-trifluoro-methanesulfonamide] showed an IC50 [1] of 1150 nM and an IC50 [2] of 114 nM.

COCCOCCOCCOc1cc(Nc2nccc(Oc3ccc(NC(=O)Nc4cc(C(C)(C)C)cc(NS(=O)(=O)C5CCCCC5)c4OC)c4ccccc34)n2)cc(OC)c1 [Example 72, N-(5-(tert-Butyl)-2-methoxy-3-(3-(4-((2-((3-methoxy-5-(2-(2-(2-methoxyethoxy)ethoxy)-ethoxy)phenyl)amino)pyrimidin-4-yl)oxy)naphthalen-1-yl)ureido)phenyl)cyclohexane-sulfonamide] showed an IC50 [1] of 19.2 nM and an IC50 [2] of 11.8 nM.

Work on COCCOCCOCCOc1cc(Nc2nccc(Oc3ccc(NC(=O)Nc4cc(C(C)(C)C)cc(NS(=O)(=O)N5CCCCC5)c4OC)c4ccccc34)n2)cc(OC)c1 [Example 73, N-(5-(tert-Butyl)-2-methoxy-3-(3-(4-((2-((3-methoxy-5-(2-(2-(2-methoxyethoxy)ethoxy)-ethoxy)phenyl)amino)pyrimidin-4-yl)oxy)naphthalen-1-yl)ureido)phenyl)piperidine-1-sulfonamide] yielded an IC50 [1] of 31.6 nM and an IC50 [2] of 19 nM.

For COCCOCCOCCOc1cc(Nc2nccc(Oc3ccc(NC(=O)Nc4cc(C(C)(C)C)cc(NS(=O)(=O)N(C)C)c4OC)c4ccccc34)n2)cc(OC)c1 [Example 74, N-(5-(tert-Butyl)-2-methoxy-3-(3-(4-((2-((3-methoxy-5-(2-(2-(2-methoxyethoxy)ethoxy)-ethoxy)phenyl)amino)pyrimidin-4-yl)oxy)naphthalen-1-yl)ureido)phenyl)dimethylamino-sulfonamide], the IC50 [1] was 11.7 nM and the IC50 [2] was 6.6 nM.

COc1c(NC(=O)Nc2ccc(Oc3ccnc(NCc4ccccn4)c3)c3ccccc23)cc(C(C)(C)C)cc1C(=O)NC1COC1 [Example 80, 5-(tert-Butyl)-2-methoxy-N-(oxetan-3-yl)-3-(3-(4-((2-((pyridin-2-ylmethyl)amino)pyridin-4-yl)oxy)naphthalen-1-yl)ureido)benzamide] gave an IC50 [3, 5] of 23.8 nM, an inhibition at 5 µg/mL [4] of 70.4% and an IC50 [2] of 4.3 nM.

For COc1cccc(Nc2cc(Oc3ccc(NC(=O)Nc4cc(C(C)(C)C)cc(C(=O)NC5COC5)c4OC)c4ccccc34)ccn2)c1 [Example 81, 5-(tert-Butyl)-2-methoxy-3-(3-(4-((2-((3-methoxyphenyl)amino)pyridin-4-yl)oxy)naphthalen-1-yl)ureido)-N-(oxetan-3-yl)benzamide], the IC50 [3, 5] was 4 nM, the IC50 [3, 6] was 98.8 nM and the inhibition at 5 µg/mL [4] was 58.1%. For the same compound, the IC50 [2] was 2.7 nM.
